The values below come from publication PMC9048745, “Physicochemical investigation of a novel curcumin diethyl γ-aminobutyrate, a carbamate ester prodrug of curcumin with enhanced anti-neuroinflammatory activity” (PLoS ONE, 2022).

Values after ≈ are worked out from the molar mass of the structure shown. Like-named read-outs stand apart in the source and are kept apart here. Where only a bound is given, the exact number is not on record here.

Format in all cases: physicochemical
A short description of data set [1]: Solubility mimicking gastrointestinal pH, with and without 0.5% SLS; dose number (D0). As to conditions: for solubility at 1 h: thermodynamic from solid. As to the method:
For solubility mimicking gastrointestinal pH, an excess amount of CUR-2GE (1 mg) was added to a vial containing 2 mL of buffer pH 1.2, 4.5 or 6.8 with and without a surfactant (0.5% SLS). The mixture was sonicated for 1 h before orbital shaking at 37°C at 100 rpm for 1 h. After that, the mixture was centrifuged at 25°C at 14,000 rpm for 10 min prior to UPLC analysis. Experiments were performed in triplicate. The dose number (D0) at different media was determined and the BSC solubility class was assigned. (see S1 Appendix).
(§1) S1 Appendix. Experimental procedures
(§2) The solubility category was classified according to USP [1] as very soluble (>1000 mg/mL), freely soluble (100-1000 mg/mL), soluble (33-100 mg/mL), sparingly soluble (10-33 mg/mL), slightly soluble (1-10 mg/mL), very slightly soluble (0.1-1 mg/mL) and practically […]
(§3) The percentage of CUR-2GE in the undissociated form at various pH values were calculated based on Henderson-Hasselbalch using Eq. 1:
(§4) %Undissociated form = 100 - antilog (pH-pKa) x 100 (1)
Where pH; pH value of the medium for solubilization, pKa; negative logarithm of the dissociation constant (Ka) of CUR-2GE with computed using the Marvin (Product version: 21.8.0) of ChemAxon (Budapest, Hungary) (http://www.chemaxon.com) accessed on June 2021.
The dose number (D0) was calculated to assign the BSC solubility class, the D0 for each pH buffer solution without surfactant was calculated using the following Eq. 2: […]
Where M0 is the highest dose strength (mg) of capsule equivalent to curcumin, the adopted dose of CUR-2GE is 927 mg equivalent to curcumin 500 mg dose. V0 is the initial gastric volume (≈250 mL), Cs is the saturation solubility of CUR-2GE in buffer solution without surfactant (mg/mL). Drugs with D0 < 1 in pH 1.2, 4.5 and 6.8 are considered as high solubility drugs. Drugs with D0 > 1 in any of the buffer solutions are classified as low solubility drugs.

A short description of data set [2]: Partition coefficient, shake flask method (OECD 107). Particulars: 25°C, aqueous phase not detectable, LOQ of 0.05 μg/mL used for calculation. How it is done:
The partition coefficient of CUR-2GE was quantified using the shake flask method according to the guideline of OECD 107 with some modifications. A saturated mixture of n-octanol/water was firstly prepared at 25°C by stirring an equal volume of n-octanol/water for 24 h and left standing until complete separation. A 1 mg of CUR-2GE was dissolved in saturated n-octanol and water at volume ratios of 1:1, 1:2 and 2:1 in screw cap tubes. Experiments were run in duplicate. The tube was shaken through 180° over the transverse axis approximately 100 times in 5 min at room temperature (25°C) to reach equilibrium and phase distribution. The phases were then separated by centrifugation at 25°C at 5,500 rpm for 10 min. […] CUR-2GE concentrations in each phase were analyzed by UPLC, and the Po/w value was determined. In addition to water used as an aqueous phase, the partition coefficient between n-octanol and buffer at pH 4.5 and the Po/buffer pH 4.5 value were determined (see S1 Appendix).
The Po/w value and Po/buffer pH 4.5 value were calculated by Eq. 3 and Eq. 4, respectively. The Log Po/w and Log Po/buffer pH 4.5 were evaluated from the average results (n = 6) from three solvent ratios, where the results fall within the range of variation of ± 0.3 units. […]
The half-lives (t1/2) of CUR-2GE were calculated by Eq. 6: […]

A short description of data set [3]: Solubility in water, buffer pH 4.5 and ethanol (UPLC). As to conditions: for solubility at 1 h: thermodynamic from solid. How it is done:
An excess amount of CUR-2GE (2 mg) was added to 2 mL of three solvents, water, phosphate buffer pH 4.5 and ethanol. The samples were sonicated at 25°C for 1 h and then placed on an orbital shaker at 100 rpm at 25°C for 1 h. The obtained mixture was then centrifuged at 25°C at 14,000 rpm for 10 min [37, 38]. The supernatant was analyzed using UPLC and the solubility of CUR-2GE in each medium was determined. Experiments were performed in triplicate. The solubility category was classified according to USP [39]. The percentage of CUR-2GE in the undissociated form at various pH values was calculated based on the Henderson-Hasselbalch equation [40] (see S1 Appendix).
as §1, §2, §3, §4
Where pH; pH value of the medium for solubilization, pKa; negative logarithm of the dissociation constant (Ka) of CUR-2GE with computed using the Marvin (Product version: 21.8.0) of ChemAxon (Budapest, Hungary) (http://www.chemaxon.com) accessed on June 2021. […]

The mark [4] stands for this setting: M0 927 mg, V0 250 mL, Cs at 37°C without 0.5% SLS.
Where [5] appears, read: 25°C, <LOQ refers to less than 0.05 μg/mL.

As to `CCOC(=O)CCCNC(=O)Oc1ccc(/C=C/C(=O)/C=C(O)/C=C/c2ccc(OC(=O)NCCCC(=O)OCC)c(OC)c2)cc1OC` [CUR-2GE, Curcumin diethyl γ-aminobutyrate], in data set [1] (37°C, without SLS, <LOQ refers to less than 0.05 μg/mL), the “Solubility, buffer pH 1.2” value is reported as “<LOQ”. The “D0 x 10^3 (dose number), buffer pH 1.2” value in data set [1] (setting [4]) was 74.16 x 10^3. In addition, the “D0 x 10^3 (dose number), buffer pH 4.5” value in data set [1] (setting [4]) is given as 5.80 x 10^3. The “D0 x 10^3 (dose number), buffer pH 6.8” value in data set [1] (setting [4]) was 10.89 x 10^3. For the same molecule, the “degradation during solubility test” value in data set [1] (all media except buffer pH 1.2 with SLS) was “less than 10%”; in data set [1] (buffer pH 1.2 with SLS, 37°C) it was “more than 10%”. Further, the solubility – broadly, how much of the substance goes into solution per volume – at 1 h in data set [1] (buffer pH 4.5 with 0.5% SLS, pH 4.5, aqueous with cosolvent or surfactant or cyclodextrin, 37°C + 0.5% SLS, read-out: Solubility, buffer pH 4.5) was 23.35 ± 0.18 µg/mL; in data set [1] (buffer pH 4.5 without SLS, pH 4.5, aqueous buffer, 37°C, without SLS, read-out: Solubility, buffer pH 4.5), 0.64 ± 0.51 µg/mL (≈ 0.937 µM); in data set [1] (buffer pH 6.8 with 0.5% SLS, pH 6.8, aqueous with cosolvent or surfactant or cyclodextrin, 37°C + 0.5% SLS, read-out: Solubility, buffer pH 6.8), 148 ± 38.5 µg/mL; in data set [1] (buffer pH 6.8 without SLS, pH 6.8, aqueous buffer, 37°C, without SLS, read-out: Solubility, buffer pH 6.8), 0.34 ± 0.5 µg/mL (≈ 0.498 µM); in data set [1] (buffers pH 1.2, 4.5 and 6.8 without surfactant, aqueous buffer, pH 1.2-6.8, 37°C, without SLS, read-out: Solubility in buffers at all tested pH), less than 1 µg/mL; in data set [3] (ethanol, organic solvent or mixture, 25°C, read-out: Solubility, ethanol), 17.9 ± 1.76 µg/mL (≈ 26.1 µM). For the same molecule, the solubility at 1 h in data set [3] (phosphate buffer pH 4.5, pH 4.5, aqueous buffer, 25°C, <LOQ refers to less than 0.05 μg/mL, read-out: Solubility, buffer pH 4.5) was less than 0.05 µg/mL; in data set [3] (water, 25°C, <LOQ refers to less than 0.05 μg/mL, read-out: Solubility, water), less than 0.05 µg/mL. The “D0 (dose number) in buffers at all tested pH” value in data set [1] (pH 1.2-6.8, 37°C, without SLS) is listed as more than 1. Moreover, the logP in data set [2] (n-octanol/buffer pH 4.5, pH 4.5, read-out: Log P (Log Po/buffer pH 4.5), n-octanol/buffer pH 4.5) is 3.43 ± 0.14; in data set [2] (n-octanol/water, read-out: Log P (Log Po/w), n-octanol/water) it was 3.57 ± 0.19. The “Solubility, buffer pH 4.5” value in data set [3] (setting [5]) is reported as “<LOQ”. Moreover, the “Solubility, water” value in data set [3] (setting [5]) is listed as “<LOQ”. Further, the USP solubility classification result in data set [3] (in water, buffer pH 4.5 and ethanol, practically insoluble = <0.1 mg/mL) is on record as “practically insoluble”.
